Experimental data reported in publication PMC5471912, “Integrated metabolome and transcriptome analysis of Magnolia champaca identifies biosynthetic pathways for floral volatile organic compounds” (BMC Genomics, 2017).

Molecular target: T1, McTPS1 (Magnolia champaca, UniProt A0A1Y0BW36)
T1 construct: gene TPS1; full-length ORF (plastid transit peptide apparently kept), N-terminal 6His tag (pDEST17), E. coli BL21 pLysS, Ni-NTA purified
T1 sequence (A0A1Y0BW36 1-581): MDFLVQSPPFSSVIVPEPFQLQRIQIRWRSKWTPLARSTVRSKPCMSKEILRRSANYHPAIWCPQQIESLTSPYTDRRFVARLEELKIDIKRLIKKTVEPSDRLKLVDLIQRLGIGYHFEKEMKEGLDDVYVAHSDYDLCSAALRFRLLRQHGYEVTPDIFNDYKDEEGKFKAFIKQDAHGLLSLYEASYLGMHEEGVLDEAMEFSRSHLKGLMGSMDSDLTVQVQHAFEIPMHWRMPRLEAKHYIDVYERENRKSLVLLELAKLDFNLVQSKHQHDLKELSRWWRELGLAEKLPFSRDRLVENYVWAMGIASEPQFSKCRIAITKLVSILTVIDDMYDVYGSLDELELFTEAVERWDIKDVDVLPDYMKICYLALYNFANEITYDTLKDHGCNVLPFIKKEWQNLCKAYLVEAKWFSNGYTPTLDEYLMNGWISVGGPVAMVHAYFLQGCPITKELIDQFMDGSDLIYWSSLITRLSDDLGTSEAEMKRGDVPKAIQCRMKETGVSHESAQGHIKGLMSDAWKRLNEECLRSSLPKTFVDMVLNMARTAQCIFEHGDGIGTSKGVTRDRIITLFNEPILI
Assay: in vitro TPS assay, chiral phase GC-MS
Format: biochemical
Conditions: 25 mM HEPES pH 7.4, 100 mM KCl, 7.5 mM MgCl2, 5 mM DTT (1X of the 2X buffer), 30 °C, 2 h

SMILES | in vitro TPS assay, chiral phase GC-MS (from GPP) | in vitro TPS assay, chiral phase GC-MS
C=C[C@](C)(O)CCC=C(C)C [(R)-linalool] | our in vitro assays identified McTPS1 as the (R)-linalool synthase | 
CC(C)=CCC/C(C)=C/COP(=O)(O)OP(=O)(O)O [geranyl diphosphate] |  | McTPS1 reacted with GPP to produce (R)-linalool, a monoterpene alcohol
